Data set [1] relates to BCC cells. As to the kind of experiment: Annexin V and PI binding assay. The format is cell-based, human. The conditions noted are these: for apoptotic cells (annexin V+/PI−): BCC cells, 1 J/cm^2 UVA. How it is done: (§1) (A) The increased enzymatic activities of the caspase-3 in apoptotic were determined by colorimetric reaction. The cleavage of peptide by the caspase releases the chromophore pNA (p-nitroaniline), which can be quantified spectrophotometrically at a wavelength of 405 nm. (B) Dot plots for BCC cells treated with various concentrations of 6f-UVA and then stained with PI and an annexin V-FITC conjugate specifically detecting the exposure of PS residues at the cell surface. (C) Morphological observation and annexin V/PI double stain were used for the detection of fibroblasts apoptosis. Approximately 10000 cells from each group were analyzed by flow cytometry. Data shown are of a representative experiment repeated three times with similar results. ** p<0.01 as compared with the control.
To assess the simultaneous observation of early phase of apoptotic and necrotic features, BCC cells were treated with various concentrations (0-4 μM) of Formula 6f for 4 h before irradiation. Twenty-four hours after irradiation, cells were harvested by trypsinization and centrifugation and measured by cytometry by adding annexin V-FITC to […] per sample according to the manufacturer's specifications (Bender MedSystems, Vienna, Austria). Simultaneously, the cells were stained with PI. Flow cytometry data were analyzed by the WinMDI software.

Another data set has as its system caspase-3. The data set is described as follows: Caspase-3 colorimetric assay. The note with it: BCC cells, 6f-UVA treatment, compared with untreated control, p<0.01 (FIG. 4A). It is filed as cell-based, human. The procedure:
as §1
Twenty-four hours after irradiation, cells were collected by centrifugation, washed once with PBS, and cell pellets were counted and resuspended in 25 μL/1×10^6 cells of cold lysis buffer and homogenized. Homogenates were centrifuged at 12,000 rpm for 10 min at 4° C., supernatants were used for measuring caspase-3 activity using an ELISA-based assay, according to the manufacturer's instructions. (R&D Systems, Minneapolis, Minn.). The results were presented as mean±SD.

Data set [2] has as its system BCC cells. The data set is described as follows: Determination of intracellular ROS level (DCFH-DA). The format is cell-based, human. The note with it: BCC cells, 6f-UVA, DCFH-DA probe (FIG. 5A). How it is done: (§2) (A) 6f-UVA induced ROS generation in BCC cells. Histogram of fluorescence vs cell count in BCC cells with various concentrations of 6f-UVA and stained with DCFH-DA. As a control, ROS was measured in the presence of catalase, a H2O2 scavenger. (B) The ΔΨmt of BCC cells after exposure to 6f-UVA. Cells were treated with 0, 2, and 4 μM Formula 6f for 4 h followed by 1 J/cm2 UVA irradiation, then stained with DiOC6 and analyzed immediately by flow cytometry as described under Materials and Methods. The number in M1 indicates the percentage of cells with reduced ΔΨmt. Approximately 10000 cells from each group were analyzed by flow cytometry. (C) Relative ATP levels were calculated as the percentage of the 0 μM level. Similar results were obtained in three independent experiments. *p<0.05, ** p<0.01 as compared with the control.
To evaluate intracellular reactive oxygen species (ROS) levels, 2′,7′-dichlorofluorescein diacetate (DCFH-DA, Molecular Probes) fluorescent dye was used to clarify this issue. The nonpolar DCFH-DA is converted to the polar derivative DCFH by esterases when it is taken up by the cell. DCFH is nonfluorescent but is rapidly oxidized to the highly fluorescent DCF by intracellular H2O2 or nitric oxide. […] The fluorescence of the samples was measured with a flow cytometer. The 2′,7′-dichlorofluorescein (DCF) data were recorded using FL-1 photomultiplier.

The test system of data set [3] is BCC cells. The data set is described as follows: ATP content bioluminescence assay. It is filed as cell-based, human. How it is done: as §2
The amount of intracellular ATP was determined by bioluminescent assay based on the measurement of the light output of the luciferin-luciferase reaction. After treatment with various concentrations of 6f-UVA, total cell extracts from cultured BCC cells were obtained immediately by lysing solution. After centrifugation to remove cell debris, the supernatants were collected for ATP measurement. The total amount of intracellular ATP was determined according to the protocol provided with the ATPLite assay kit (Perkin Elmer, Boston, Mass.).

For a further data set, the system named is ERK. As to the kind of experiment: Western blot analysis of MAPK phosphorylation: ERK. The format is cell-based, human. The note with it: BCC cells, 6f-UVA at 4 μM, compared with untreated control (FIG. 6A). How it is done: (A) After exposure to different concentration of 6f-UVA, cell lysates were collected and immunoblotted with specific antibodies as indicated. For the internal control, the same amounts of protein extract were also probed with antibody against actin. (B) As a control, the expression level of p-ERK was determined in the presence of oligomycin (25 μM) and ATP (1×10^−4M)
Total cell extracts from cultured BCC cells were obtained by lysing the cells in ice-cold RIPA buffer (1×PBS, 1% NP-40, 0.5% sodium deoxycholate, 0.1% SDS) containing 100 μg/mL PMSF, 2 μg/mL aprotinin, 2 μg/mL leupeptin and 100 μg/mL NaF. After centrifugation at 14,000 g for 30 min, protein in the supernatants was quantified by Bradford method (Bio-Rad). Forty micrograms of protein per lane was applied in 10% SDS-poly-acrylamide gel. After electrophoresis, protein was transferred from the gel to polyvinylidene difluoride (PVDF) membrane (Millipore, Bedford, Mass.). The membranes were blocked at room temperature for 1 h in PBS+0.1% Tween 20 (PBS-T) containing 5% skim milk. After being briefly rinsed with PBS-T, the blots were probed with respective primary antibodies at room temperature for 2 h or at 4° C. overnight. Rabbit polyclonal antibodies against JNK (46 kDa), p38 (38 kDa), ERK (42, 44 kDa), and mouse monoclonal antibody against p-JNK, p-p38, p-ERK were purchased from Santa Cruz Biotechnology (Santa Cruz, Calif.). Mouse monoclonal antibody against actin was purchased from Chemicon Int. Inc. (Temecula, Calif.). For the blocking test, 25 μM oligomycin (Sigma, a mitochondria-specific F0F1 ATP synthase inhibitor) or 1×10^−4M ATP (Sigma) was added to the media 30 min before treated with 6f-UVA, respectively. The membrane was incubated with the corresponding horseradish peroxidase-labeled secondary antibody (Santa Cruz Biotechnology) at room temperature for 1 h. […] The relative amounts of specific proteins were quantified by densitometry scanning of X-ray films and analyzed by Eagle Eye Image System (Stratagene, La Jolla, Calif.)

On to `Nc1ccc(-c2nc3ccc(C(F)(F)F)cc3s2)cc1` [Formula 6f, 2-(4-Aminophenyl)-6-trifluoromethylbenzothiazole], for which the melting point – broadly, the temperature, or range, at which the solid turns liquid – lay in the range of 181 to 183 °C. In addition, the “necrotic cells (annexin V+/PI+)” value with BCC cells [1] (BCC cells, 0, 2, and 4 μM, 1 J/cm^2 UVA (FIG. 4B)) is given as “no obvious change”. Moreover, in the data set on BCC cells [1] (2 μM), the “apoptotic cells (annexin V+/PI−)” value is on record as 19.5%. For the same molecule, the “apoptotic cells (annexin V+/PI−)” value in the data set with BCC cells [1] (4 μM) stood at 27.5%. The caspase-3 activity entry in the data set with caspase-3 is “increased”. Further, in the data set on BCC cells [2], the “intracellular H2O2 levels” value is on record as “significantly increased”. In addition, the “decrease of intracellular ATP content compared with untreated control” value in the data set on BCC cells [3] (2 μM 6f-UVA) is “about 30%”. Besides, the “decrease of intracellular ATP content compared with untreated control” value in the data set on BCC cells [3] (4 μM 6f-UVA) is given as roughly 45%. Also, the “phosphorylation of ERK (p-ERK)” value in the data set with ERK was “increased”.
